Data as given in ChEMBL document CHEMBL1201862, “PubChem BioAssay data set” (2004).
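96-well plates; 48 h exposure; 5 concentrations. Endpoints by linear interpolation between flanking doses. Not reached: highest tested concentration assigned. Here, GI50 denotes the concentration required for 50% inhibition of growth.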 The source made the active and inactive calls. Rule as the data show it: active = GI50 up to about 1.1 µM and inactive = higher.

Assays:
Experiment in all cases: inhibition of tumour cell growth, NCI panel, 48 h
786-0 = test system: 786-0
A498 = test system: A498
A549 = test system: A549
CAKI-1 = test system: CAKI-1
CCRF-CEM = test system: CCRF-CEM
COLO 205 = test system: COLO 205
DLD-1 = test system: DLD-1
DMS-114 = test system: DMS-114
DMS-273 = test system: DMS-273
EKVX = test system: EKVX
HCC 2998 = test system: HCC 2998
HCT-116 = test system: HCT-116
HCT-15 = test system: HCT-15
HL-60 = test system: HL-60
HOP-18 = test system: HOP-18
HOP-62 = test system: HOP-62
HOP-92 = test system: HOP-92
HT-29 = test system: HT-29
IGROV-1 = test system: IGROV-1
K562 = test system: K562
KM-20L2 = test system: KM-20L2
KM12 = test system: KM12
LOX IMVI = test system: LOX IMVI
LXFL 529 = test system: LXFL 529
M14 = test system: M14
M19-MEL = test system: M19-MEL
MOLT-4 = test system: MOLT-4
Malme-3M = test system: Malme-3M
NCI-H226 = test system: NCI-H226
NCI-H23 = test system: NCI-H23
NCI-H460 = test system: NCI-H460
NCI-H522 = test system: NCI-H522
OVCAR-3 = test system: OVCAR-3
OVCAR-4 = test system: OVCAR-4
OVCAR-5 = test system: OVCAR-5
OVCAR-8 = test system: OVCAR-8
RPMI-8226 = test system: RPMI-8226
RXF 393 = test system: RXF 393
SF-268 = test system: SF-268
SF-295 = test system: SF-295
SF-539 = test system: SF-539
SK-MEL-2 = test system: SK-MEL-2
SK-MEL-5 = test system: SK-MEL-5
SK-OV-3 = test system: SK-OV-3
SN12C = test system: SN12C
SNB-19 = test system: SNB-19
SNB-75 = test system: SNB-75
SNB-78 = test system: SNB-78
SW-620 = test system: SW-620
TK-10 = test system: TK-10
U-251 = test system: U-251
UACC-257 = test system: UACC-257
UACC-62 = test system: UACC-62
UO-31 = test system: UO-31
XF498 = test system: XF498
ACHN = test system: ACHN
SK-MEL-28 = test system: SK-MEL-28
SR = test system: SR

In the case of `CCOC(=O)/C(C#N)=C/c1[nH]c(C)c(C)c1C`, the GI50 (786-0) is reported as > 100 µM (inactive), the GI50 (A498) is reported as > 100 µM (inactive) and the GI50 (A549) is reported as > 100 µM (inactive). For the same compound, the GI50 (CAKI-1) was > 100 µM (inactive), the GI50 (CCRF-CEM) was > 100 µM (inactive) and the GI50 (COLO 205) was > 100 µM (inactive). The GI50 (DLD-1) was > 100 µM (inactive), the GI50 (DMS-114) was > 100 µM (inactive) and the GI50 (DMS-273) was > 100 µM (inactive). The GI50 (EKVX) was > 100 µM (inactive), the GI50 (HCC 2998) was > 100 µM (inactive) and the GI50 (HCT-116) was > 100 µM (inactive). The GI50 (HCT-15) was over 100 µM, the GI50 (HL-60) was > 100 µM (inactive) and the GI50 (HOP-18) was > 100 µM (inactive). The GI50 (HOP-62) was > 100 µM (inactive), the GI50 (HOP-92) was > 100 µM (inactive) and the GI50 (HT-29) was > 100 µM (inactive). The GI50 (IGROV-1) was > 100 µM (inactive), the GI50 (K562) was > 100 µM (inactive) and the GI50 (KM-20L2) was > 100 µM (inactive). For the same compound, the GI50 (KM12) was > 100 µM (inactive), the GI50 (LOX IMVI) was > 100 µM (inactive) and the GI50 (LXFL 529) was > 100 µM (inactive). The GI50 (M14) was > 100 µM (inactive), the GI50 (M19-MEL) was > 100 µM (inactive) and the GI50 (MOLT-4) was > 100 µM (inactive). For the same compound, the GI50 (Malme-3M) was > 100 µM (inactive), the GI50 (NCI-H226) was > 100 µM (inactive) and the GI50 (NCI-H23) was > 100 µM (inactive). The GI50 (NCI-H460) was > 100 µM (inactive), the GI50 (NCI-H522) was > 100 µM (inactive) and the GI50 (OVCAR-3) was > 100 µM (inactive). The GI50 (OVCAR-4) was > 100 µM (inactive), the GI50 (OVCAR-5) was > 100 µM (inactive) and the GI50 (OVCAR-8) was > 100 µM (inactive). For the same compound, the GI50 (RPMI-8226) was > 100 µM (inactive), the GI50 (RXF 393) was > 100 µM (inactive) and the GI50 (SF-268) was > 100 µM (inactive). The GI50 (SF-295) was > 100 µM (inactive), the GI50 (SF-539) was > 100 µM (inactive) and the GI50 (SK-MEL-2) was > 100 µM (inactive). For the same compound, the GI50 (SK-MEL-5) was > 100 µM (inactive), the GI50 (SK-OV-3) was > 100 µM (inactive) and the GI50 (SN12C) was > 100 µM (inactive). For the same compound, the GI50 (SNB-19) was > 100 µM (inactive), the GI50 (SNB-75) was > 100 µM (inactive) and the GI50 (SNB-78) was > 100 µM (inactive). For the same compound, the GI50 (SW-620) was > 100 µM (inactive), the GI50 (TK-10) was > 100 µM (inactive) and the GI50 (U-251) was > 100 µM (inactive). The GI50 (UACC-257) was > 100 µM (inactive), the GI50 (UACC-62) was > 100 µM (inactive) and the GI50 (UO-31) was > 100 µM (inactive). For the same compound, the GI50 (XF498) was > 100 µM (inactive).
`CCCCN(C)CC(C(C)=O)C(c1ccccc1)c1c(O)c2ccccc2oc1=O` (stereo unspecified) was tested, and the GI50 (786-0) was > 100 µM (inactive), the GI50 (A498) was > 100 µM (inactive) and the GI50 (A549) was > 100 µM (inactive). For the same compound, the GI50 (ACHN) was > 100 µM (inactive), the GI50 (CAKI-1) was > 100 µM (inactive) and the GI50 (CCRF-CEM) was > 100 µM (inactive). The GI50 (COLO 205) was > 100 µM (inactive), the GI50 (DLD-1) was > 100 µM (inactive) and the GI50 (DMS-114) was > 100 µM (inactive). The GI50 (DMS-273) was > 100 µM (inactive), the GI50 (EKVX) was > 100 µM (inactive) and the GI50 (HCT-116) was > 100 µM (inactive). For the same compound, the GI50 (HCT-15) was over 100 µM, the GI50 (HL-60) was > 100 µM (inactive) and the GI50 (HOP-18) was > 100 µM (inactive). The GI50 (HOP-62) was > 100 µM (inactive), the GI50 (HT-29) was > 100 µM (inactive) and the GI50 (IGROV-1) was > 100 µM (inactive). For the same compound, the GI50 (K562) was > 100 µM (inactive), the GI50 (KM-20L2) was > 100 µM (inactive) and the GI50 (KM12) was > 100 µM (inactive). The GI50 (LOX IMVI) was > 100 µM (inactive), the GI50 (LXFL 529) was > 100 µM (inactive) and the GI50 (M14) was > 100 µM (inactive). For the same compound, the GI50 (M19-MEL) was > 100 µM (inactive), the GI50 (MOLT-4) was > 100 µM (inactive) and the GI50 (Malme-3M) was > 100 µM (inactive). For the same compound, the GI50 (NCI-H226) was > 100 µM (inactive), the GI50 (NCI-H23) was 62.2 µM (inactive) and the GI50 (NCI-H460) was > 100 µM (inactive). For the same compound, the GI50 (NCI-H522) was > 100 µM (inactive), the GI50 (OVCAR-3) was > 100 µM (inactive) and the GI50 (OVCAR-4) was > 100 µM (inactive). For the same compound, the GI50 (OVCAR-5) was > 100 µM (inactive), the GI50 (OVCAR-8) was > 100 µM (inactive) and the GI50 (RPMI-8226) was > 100 µM (inactive). For the same compound, the GI50 (RXF 393) was > 100 µM (inactive), the GI50 (SF-268) was > 100 µM (inactive) and the GI50 (SF-295) was > 100 µM (inactive). For the same compound, the GI50 (SF-539) was > 100 µM (inactive), the GI50 (SK-MEL-28) was > 100 µM (inactive) and the GI50 (SK-MEL-2) was > 100 µM (inactive). The GI50 (SK-MEL-5) was > 100 µM (inactive), the GI50 (SK-OV-3) was > 100 µM (inactive) and the GI50 (SN12C) was > 100 µM (inactive). For the same compound, the GI50 (SNB-19) was > 100 µM (inactive), the GI50 (SNB-75) was 65.2 µM (inactive) and the GI50 (SNB-78) was > 100 µM (inactive). The GI50 (SR) was > 100 µM (inactive), the GI50 (SW-620) was > 100 µM (inactive) and the GI50 (TK-10) was > 100 µM (inactive). For the same compound, the GI50 (U-251) was > 100 µM (inactive), the GI50 (UACC-257) was > 100 µM (inactive) and the GI50 (UACC-62) was > 100 µM (inactive). For the same compound, the GI50 (UO-31) was > 100 µM (inactive) and the GI50 (XF498) was > 100 µM (inactive).
